According to ChEMBL document CHEMBL4673189, “Recent progress in the discovery of ghrelin O-acyltransferase (GOAT) inhibitors” (RSC Med Chem, 2020):
Non-standard residues stand in square brackets, D forms with d. Residues, ends and D or L forms follow the SMILES beside them. *: point of attachment. Octanoyl = CCCCCCCC(=O)*; X1 = CC(C)C[C@@H](CN)N*; Dap = NC[C@H](N)C(=O)O

Key:
[1] = molecular target: T1, Membrane-bound ghrelin O-acyltransferase MBOAT4 (Homo sapiens, UniProt Q96T53); test: Inhibition of human His-tagged GOAT expressed in baculovirus infected Sf9 cell membrane using desacyl-ghrelin-biotin and octanoyl-CoA as substrate incubated for 1 hr by ELISA; type: cell membranes
T1 sequence (Q96T53 whole entry): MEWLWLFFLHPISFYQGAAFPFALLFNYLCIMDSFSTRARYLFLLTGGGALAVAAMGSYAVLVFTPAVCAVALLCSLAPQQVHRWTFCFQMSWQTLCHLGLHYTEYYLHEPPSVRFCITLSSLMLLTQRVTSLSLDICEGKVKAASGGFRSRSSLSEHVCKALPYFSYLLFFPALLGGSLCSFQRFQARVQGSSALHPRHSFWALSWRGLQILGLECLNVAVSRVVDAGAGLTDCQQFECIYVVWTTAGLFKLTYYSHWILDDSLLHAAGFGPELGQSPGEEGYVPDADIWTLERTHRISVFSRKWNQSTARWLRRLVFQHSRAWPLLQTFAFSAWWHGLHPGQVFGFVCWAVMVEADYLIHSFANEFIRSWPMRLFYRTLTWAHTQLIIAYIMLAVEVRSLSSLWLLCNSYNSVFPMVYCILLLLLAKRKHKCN

[2] = In vivo inhibition of GOAT in C57BL/6 mouse assessed as reduction in ratio of AG to total-ghrelin at 18 mg/kg, po BID administered via gavage for 3 days by ELISA relative to control; type: functional; settings: C57BL/6, po, 72 h, time 3 day
[3] = molecular target: T2, Membrane-bound ghrelin O-acyltransferase MBOAT4 (Mus musculus, UniProt P0C7A3); test: Inhibition of N-terminal His10-tagged mouse GOAT expressed in baculovirus infected sf9 insect cell membrane using proghrelin-His8 and [3H]octanoyl CoA as substrate by scintillation counting method; type: cell membranes
T2 sequence (P0C7A3 whole entry): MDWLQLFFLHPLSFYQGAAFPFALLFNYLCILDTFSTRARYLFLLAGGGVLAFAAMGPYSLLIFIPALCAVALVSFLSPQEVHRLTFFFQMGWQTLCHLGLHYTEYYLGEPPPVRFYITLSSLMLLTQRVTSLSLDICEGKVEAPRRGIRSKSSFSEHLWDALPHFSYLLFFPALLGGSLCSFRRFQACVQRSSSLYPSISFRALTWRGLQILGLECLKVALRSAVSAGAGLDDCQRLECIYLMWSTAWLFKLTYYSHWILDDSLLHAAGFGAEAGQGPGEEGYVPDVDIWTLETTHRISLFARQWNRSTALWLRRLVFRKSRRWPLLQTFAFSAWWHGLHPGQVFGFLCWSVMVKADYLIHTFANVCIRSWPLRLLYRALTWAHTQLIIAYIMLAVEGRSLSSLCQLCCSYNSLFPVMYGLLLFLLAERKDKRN

[4] = In vivo inhibition of GOAT in C57BL/6 mouse assessed as reduction in ratio of AG to total-ghrelin at 0.3 mg/kg, po BID administered via gavage for 3 days by ELISA relative to control; type: functional; settings: C57BL/6, po, 72 h, time 3 day
[5] = In vivo inhibition of GOAT in C57BL/6 mouse assessed as decrease in plasma acylated ghrelin level at 3 mg/kg, po BID administered via gavage for 3 days by ELISA relative to control; type: functional; settings: C57BL/6, po, 72 h, time 3 day
[6] = In vivo inhibition of GOAT in C57BL/6 mouse assessed as reduction in ratio of AG to total-ghrelin at 1 mg/kg, po BID administered via gavage for 3 days by ELISA relative to control; type: functional; settings: C57BL/6, po, 72 h, time 3 day
[7] = In vivo inhibition of GOAT in C57BL/6 mouse assessed as increase in unacylated-ghrelin level at 10 mg/kg, po BID administered via gavage for 3 days by ELISA relative to control; type: functional; settings: time 3 day
[8] = In vivo inhibition of GOAT in C57BL/6 mouse assessed as decrease in plasma acylated ghrelin level at 10 mg/kg, po BID administered via gavage for 3 days by ELISA relative to control; type: functional; settings: C57BL/6, po, 72 h, time 3 day
[9] = In vivo inhibition of GOAT in C57BL/6 mouse assessed as increase in unacylated-ghrelin level at 0.3 mg/kg, po BID administered via gavage for 3 days by ELISA relative to control; type: functional; settings: time 3 day
[10] = In vivo inhibition of GOAT in C57BL/6 mouse assessed as increase in unacylated-ghrelin level at 3 mg/kg, po BID administered via gavage for 3 days by ELISA relative to control; type: functional; settings: time 3 day
[11] = In vivo inhibition of GOAT in C57BL/6 mouse assessed as decrease in plasma acylated ghrelin level at 0.3 mg/kg, po BID administered via gavage for 3 days by ELISA relative to control; type: functional; settings: C57BL/6, po, 72 h, time 3 day
[12] = In vivo inhibition of GOAT in C57BL/6 mouse assessed as reduction in ratio of AG to total-ghrelin at 3 mg/kg, po BID administered via gavage for 3 days by ELISA relative to control; type: functional; settings: C57BL/6, po, 72 h, time 3 day
[13] = In vivo inhibition of GOAT in C57BL/6 mouse assessed as increase in unacylated-ghrelin level at 1 mg/kg, po BID administered via gavage for 3 days by ELISA relative to control; type: functional; settings: time 3 day
[14] = In vivo inhibition of GOAT in C57BL/6 mouse assessed as decrease in plasma acylated ghrelin level at 1 mg/kg, po BID administered via gavage for 3 days by ELISA relative to control; type: functional; settings: C57BL/6, po, 72 h, time 3 day
[15] = In vivo inhibition of GOAT in C57BL/6 mouse assessed as reduction in ratio of AG to total-ghrelin at 10 mg/kg, po BID administered via gavage for 3 days by ELISA relative to control; type: functional; settings: C57BL/6, po, 72 h, time 3 day
[16] = molecular target: T2, Membrane-bound ghrelin O-acyltransferase MBOAT4; test: Antagonist activity at mouse GOAT expressed in baculovirus infected sf9 insect cell membrane using ghrelin(1 to 5) pentapeptide as substrate preincubated for 5 mins followed by Palmitoyl-CoA and n-octynoyl-CoA addition and measured after 5 mins by amplex red/H2O2 reagent-based fluorescence method; type: cell membranes
[17] = In vivo inhibition of GOAT in C57BL/6 mouse assessed as reduction in ratio of AG to total-ghrelin at 0.1 mg/kg, po BID administered via gavage for 3 days by ELISA relative to control; type: functional; settings: C57BL/6, po, 72 h, time 3 day
[18] = molecular target: T1, Membrane-bound ghrelin O-acyltransferase MBOAT4; test: Inhibition of human His-tagged GOAT expressed in baculovirus infected Sf9 cell membrane using biotinylated ghrelin peptide/octanoyl-CoA/palmitoyl CoA as substrate incubated for 80 mins by TR-FRET assay; type: cell membranes
[19] = In vivo inhibition of GOAT in cynomolgus monkey assessed as reduction in plasma acyl ghrelin AUC (0 to 24 hrs) at 10 mg/kg, po administered as single dose measured after 15 mins to 24 hrs relative to control; type: functional; settings: Macaca fascicularis, 0.25 h
[20] = In vivo inhibition of GOAT in mouse model of HFHC-diet induced obesity assessed as reduction in acyl ghrelin level at 10 mg/kg, po administered once daily for 7 days relative to control; type: functional; settings: 168 h, time 7 day
[21] = molecular target: T1, Membrane-bound ghrelin O-acyltransferase MBOAT4; test: Inhibition of human GOAT expressed in baculovirus infected sf9 insect cell membrane using GSSFLC-acrylodan and octanoyl-CoA as substrate preincubated for 30 mins followed by substrate addition and measured after 3 hrs by HPLC analysis; type: cell membranes
[22] = molecular target: T2, Membrane-bound ghrelin O-acyltransferase MBOAT4; test: Inhibition of mouse GOAT expressed in baculovirus infected sf9 insect cell microsomes using biotinylated des-acyl ghrelin and octanoyl-CoA -CoA as substrate incubated for 15 mins by HTRF assay; parameters: species or system Microsome
[23] = molecular target: T1, Membrane-bound ghrelin O-acyltransferase MBOAT4; test: Inhibition of human GOAT expressed in baculovirus infected sf9 insect cell microsomes using biotinylated des-acyl ghrelin and octanoyl-CoA as substrate incubated for 15 mins by HTRF assay; parameters: species or system Microsome
[24] = molecular target: T1, Membrane-bound ghrelin O-acyltransferase MBOAT4; test: Inhibition of GOAT (unknown origin)
[25] = molecular target: Growth hormone secretagogue receptor type 1 (Homo sapiens, UniProt Q92847); test: Inhibition of GHSR-1A (unknown origin)
Growth hormone secretagogue receptor type 1, sequence (Q92847 whole entry): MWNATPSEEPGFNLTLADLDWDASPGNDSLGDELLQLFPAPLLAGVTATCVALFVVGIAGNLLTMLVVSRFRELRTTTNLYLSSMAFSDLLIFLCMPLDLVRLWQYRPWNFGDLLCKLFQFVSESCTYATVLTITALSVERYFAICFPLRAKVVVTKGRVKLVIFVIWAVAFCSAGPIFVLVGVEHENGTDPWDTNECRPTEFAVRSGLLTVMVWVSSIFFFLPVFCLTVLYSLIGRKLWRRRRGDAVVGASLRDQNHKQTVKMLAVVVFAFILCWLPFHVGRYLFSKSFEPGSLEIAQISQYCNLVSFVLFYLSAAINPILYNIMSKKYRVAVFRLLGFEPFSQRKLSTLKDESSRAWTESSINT

Compound: C[C@H](NC(=O)c1ccn(C)n1)C(=O)N1CCC(CCc2c(N)nc(N)nc2Cl)CC1
- IC50 [1]: 0.0689 µM
- inhibition in vivo at 18 mg/kg [2]: 86%

Compound: CCCC[C@H]1C[C@H](C(=O)NC[C@H]2CCCN2C(=O)[C@@H](NC(=S)CNC)C(C)(C)C)C1
- IC50 [3]: 0.03 µM

Compound: C[C@H](NC(=O)C1CC1)C(=O)N1CCC(CCc2c(N)nc(N)nc2Cl)CC1
- inhibition in vivo at 0.3 mg/kg [4]: 39%
- inhibition in vivo at 3 mg/kg [5]: 45%
- IC50 [1]: 0.192 µM
- inhibition in vivo at 1 mg/kg [6]: 54%
- fold change (FC) [7]: 2.9
- inhibition in vivo at 10 mg/kg [8]: 48%
- fold change (FC) [9]: 2.24
- fold change (FC) [10]: 2.53
- inhibition in vivo at 0.3 mg/kg [11]: -1%
- inhibition in vivo at 3 mg/kg [12]: 71%
- fold change (FC) [13]: 2.82
- inhibition in vivo at 1 mg/kg [14]: 5%
- inhibition in vivo at 10 mg/kg [15]: 77%

Compound: CCCCCCCC(=O)OC[C@H](OC(=O)[C@H](CO)NC(=O)CN)C(=O)N[C@@H](Cc1ccccc1)C(=O)N[C@@H](CC(C)C)C(=O)N[C@@H](CO)C(=O)N1CCC[C@H]1C(=O)N[C@@H](CCC(=O)O)C(=O)N[C@@H](Cc1cnc[nH]1)C(=O)N[C@@H](CCC(N)=O)C(=O)N[C@@H](CCCCN)C(=O)N[C@@H](C)C(=O)N[C@@H](CCC(N)=O)C(=O)N[C@@H](CCC(N)=O)C(=O)N[C@@H](CCCNC(=N)N)C(=O)N[C@@H](CCCCN)C(=O)N[C@@H](CCC(=O)O)C(=O)N[C@@H](CO)C(=O)N[C@@H](CCCCN)C(=O)N[C@@H](CCCCN)C(=O)N1CCC[C@H]1C(=O)N1CCC[C@H]1C(=O)N[C@@H](C)C(=O)N[C@@H](CCCCN)C(=O)N[C@@H](CC(C)C)C(=O)N[C@@H](CCC(N)=O)C(=O)N1CCC[C@H]1C(=O)N[C@@H](CCCNC(=N)N)C(=O)O
- IC50 [3]: 7 µM

Compound: CCCCCCN(C(C)=O)C(CNCc1ccccc1)c1ccc2cc(O)ccc2c1 (centres undefined)
- IC50 [16]: 7.5 µM

Compound: COC(=O)N[C@@H](C)C(=O)N1CCC(CCc2c(N)nc(C)nc2Cl)CC1
- inhibition in vivo at 3 mg/kg [5]: 66%
- fold change (FC) [10]: 2.9
- inhibition in vivo at 3 mg/kg [12]: 82%

Compound: Cc1nc(C(F)(F)F)nc(N)c1CCC1CCN(C(=O)[C@H](C)NC(=O)c2ccnn2C)CC1
- inhibition in vivo at 0.3 mg/kg [4]: 62%
- inhibition in vivo at 1 mg/kg [6]: 79%
- inhibition in vivo at 3 mg/kg [12]: 82%
- inhibition in vivo at 0.1 mg/kg [17]: 57%
- inhibition in vivo at 10 mg/kg [15]: 82%

Compound: CCCCCCCCN(C(C)=O)C(CNCc1ccccc1)c1ccc2cc(O)ccc2c1 (centres undefined)
- IC50 [16]: 13 µM

Compound: O=C(O)Cc1csc2cc(O[C@H]3CCc4ncccc43)cc(Cl)c12
- IC50 [18]: < 0.05 µM
- inhibition in vivo at 10 mg/kg [19]: 51%
- inhibition in vivo at 10 mg/kg [20]: 28%

Compound: CCCCCCC[C@](C)(O)/C=C/[C@H](NC(=O)OCc1ccccc1)C(=O)OC
- IC50 [3]: 50 µM

Compound: CC1(C)C(=O)C(C#N)=C[C@]2(C)[C@H]3CC[C@]4(C)CCC[C@H]4[C@@H]3CC[C@@H]12
- IC50 [21]: 8 µM

Compound: CCCCCCC[C@H](O)/C=C/[C@H](NC(=O)OCc1ccccc1)C(=O)OC
- IC50 [3]: 90 µM

Compound: O=C(O)c1ccc2oc(SCc3ccc(Cl)cc3Cl)nc2c1
- IC50 [22]: 0.0033 µM
- IC50 [23]: 0.0086 µM

Compound: CCCCCCCC(=O)OC[C@H](NC(=O)[C@H](CO)NC(=O)CN)C(=O)N[C@@H](Cc1ccccc1)C(=O)N[C@H](CN)CC(C)C (H-GSS(Octanoyl)F-X1)
- IC50 [3]: 45 µM

Compound: CCCCCCCC(=O)NC[C@H](NC(=O)[C@H](CO)NC(=O)CN)C(=O)N[C@@H](Cc1ccccc1)C(=O)N[C@H](CN)CC(C)C (H-GS[Dap](Octanoyl)F-X1)
- IC50 [3]: 1 µM

Compound: C[C@@H](O)[C@H](NC(=O)[C@@H]1CCCN1C(=O)[C@H](CO)NC(=O)[C@H](Cc1cccc2ccccc12)NC(=O)[C@H](CN)NC(=O)[C@H](CO)NC(=O)CN)C(N)=O (HELM PEPTIDE1{G.S.[NC[C@H](N[*:1])C(=O)[*:2]].[O=C([C@H](Cc1cccc2ccccc12)N[*:1])[*:2]].S.P.T.[am]}$$$$V2.0)
- IC50 [24]: 0.006 µM
- IC50 [25]: 100 µM
